Key:
[1] = tested on: RIF-1 murine fibrosarcoma; experiment: Example 2: RIF-1 tumor growth delay (TVQT), amonafide alone and with other chemotherapeutics; conditions: for TVQT: single agent, mean ± SE
Description: Animals: Female C3H mice (Charles River Laboratories, Holister, Calif.), approximately 3 months old, were used for the study. The average body weight was approximately 25 g. Animals were maintained in isolator cages on a 12-hour light-and-dark cycle. Food and water were available ad libitum.
Tumors: The RIF-1 murine fibrosarcoma cell line was maintained in in vitro culture (Waymouth medium supplemented with 20% fetal bovine serum) at 37 C. in a humidified 5% CO2 incubator. Log-phase RIF-1 cells were trypsinized and harvested from cell culture flasks to yield a concentration of 4×10^6 cells/mL, then injected intradermally in a volume of 50 μL (equivalent to 2×10^5 cells per injection) into both flanks of each mouse. Nine days later, when tumors reached approximately 100 mm^3 in size, the animals were randomized to different treatment groups.
Four to five animals were assigned to each treatment group. The intrperitoneal injection volume was 100 μL. The oral administration volume was 100 μL. Combination treatments using two test agents were administered as two separate injections, with the second one following the first either immediately or after 30 minutes.
Tumor volume (cubic millimeters, mm^3) was calculated according to the formula: V=π/6×D1×D2×D3 in which D1–3 are perpendicular diameters measured in millimeters (mm).
Tumor volume quadrupling time (TVQT), defined as the time required for a tumor to grow to four times (4×) its initial volume (at the time of treatment), was used as a study endpoint. The TVQT was determined for each treatment group and expressed in days as the mean±standard error (SE).

[2] = tested on: murine fibrosarcomas (RIF-1 cells); experiment: Example 1: tumor growth delay (TVQT) of RIF-1 fibrosarcoma, amonafide with cisplatin; format: in vivo, C3H mice; conditions: single agent
Description: When the tumors reached a volume of approximately 100 mm3, the mice were randomly assigned to each experimental group (4 mice per group).
The chemopotentiator, amonafide, was obtained from NCI and was made to the appropriate concentration in DMSO. […] The compositions were injected systemically (i.e., intraperitoneally, i.p.), in a volume of 100 microliters. For the treatment of group 3, the chemopotentiator, amonafide, was injected 30 minutes prior to the injection of cisplatin. After treatment, the growth of the tumors was monitored three times per week by caliper measurements of three perpendicular diameters of the tumor and calculation of tumor volume from the formula: V=π/6×D1×D2×D3, where D1-3 represents tumor diameters, in mm.
The tumors were followed until they reached a size of four times their day zero treatment volume (TVQT), or up to 30 days after treatment, whichever came first. The data is expressed as the “tumor volume quadrupling time” (TVQT) mean and as the “delay.” Mean TVQT is the mean days required for individual tumors to grow to four times the tumor volume at the initial treatment day. The “delay” is the median of days required for a tumor to grow to four times the mean size of the treated group, minus the median of days required to grow to four times the mean size of the control group. The data is also expressed as the ratio of the tumor volume quadrupling time of the treated tumor over the untreated control group (TVQT/CTVQT). Increasing values of this ratio indicate increased antitumor response.

[3] = tested on: murine fibrosarcomas (RIF-1 cells); experiment: Example 3: RIF-1 tumor growth delay (TGD), amonafide with camptothecin, genistein or rosmarinic acid; format: in vivo, C3H mice; conditions: single agent
Description: Transplantable experimental murine fibrosarcomas (2×10^5 RIF-1 cells) were grown intradermally in the flanks of 3 month old female C3H mice (Charles River, Holister, Calif.). When the tumors reached a volume of −100 mm^3, the mice were randomly assigned to each experimental group (4 mice per group).
Amonafide was manufactured by Penta for ChemGenex and was made to the appropriate concentration in saline. […] The compositions were injected systemically (i.e., intraperitoneally, i.p.), in a volume of 100 μl. For the treatment of groups 3, 5 and 7, amonafide, was injected immediately prior to the injection of camptothecin, genistein or rosmarinic acid. After treatment, the growth of the tumors was monitored three times per week by caliper measurements of three perpendicular diameters of the tumor and calculation of tumor volume from the formula: V=π/6×D1×D2×D3, where D1-3 represents tumor diameters, in mm.
The data is also expressed as the tumor growth delay (TGD) median which is the median days to 4× the tumor volume from the initial treatment day, and as the delay which is the median days to 4× of the treated group minus the median days to 4× of the control group. The T/C ratio is the ratio of days to 4× of the treated tumors over the days to 4× of the untreated control tumors. Increasing values indicate increased antitumor response.
The tumors were followed until they reached 4 times their Day 0 treatment volume or up to 30 days after treatment (tumor growth delay, TGD), whichever came first. The data is also expressed as the ratio of the tumor growth delay of the treated tumor (TGD) over the untreated control group (CTGD). Increasing values of this ratio indicate increased antitumor response.

[4] = Example 2: animal deaths after treatment; format: in vivo, C3H mice; conditions: formulated in DMSO at 12.5 mg/mL, IP
Description: The average body weight was approximately 25 g. […] Food and water were available ad libitum.
The intrperitoneal injection volume was 100 μL. The oral administration volume was 100 μL.

## O=c1[nH]cc(F)c(=O)[nH]1 [5-Fluorouracil]
[1]; 15 mg/Kg IP
  TVQT: 6.7 days
[1]; 15 mg/Kg IP, listed as Fluorouracil/Saline
  TVQT: 6.7 ± 0.4 days
[1]; 30 mg/Kg IP
  TVQT: 13.6 days
[1]; 30 mg/Kg IP, listed as Fluorouracil/Saline
  TVQT: 13.6 ± 1.9 days

## CN(C)CCN1C(=O)c2cccc3cc(N)cc(c23)C1=O [Amonafide, 5-amino-2-[(dimethylamine)ethyl]-1H-benz[de-]isoquinoline-1,3-(2H)-dione]
[2]; 50 mg/kg i.p.
  Delay: 2.94 days
  Mean TVQT ± S.E.: 9.7 ± 0.6 days
  Median (TVQT): 9.0 days
  TVQT/CTVQT: 1.5
[3]; 30 mg/kg i.p.
  Delay: -0.36 days
  Median (TGD): 7.0 days
  TGD ± S.E.: 7.0 ± 0.4 days
  TGD/CTGD: 0.9
[4]
  animal deaths: Two of four mice died
[1]; 30 mg/Kg IP
  TVQT: 7.3 days
[1]; 30 mg/Kg IP, listed as Amonafide-Penta/Saline
  TVQT: 7.3 ± 0.2 days
[1]; intraperitoneal amonafide, alone or in combination
  antitumor activity, summary in words (versus amonafide alone and the individual test agents): had antitumor activity

## CC[C@@]1(O)C(=O)OCc2c1cc1n(c2=O)Cc2cc3ccccc3nc2-1 [Camptothecin]
[3]; 6 mg/kg i.p.
  Delay: 5.45 days
  Median (TGD): 12.8 days
  TGD ± S.E.: 12.9 ± 0.5 days
  TGD/CTGD: 1.7

## N.N.[Cl][Pt][Cl] [Cisplatin, cis-diamminedichloroplatinum II]
[2]; 4 mg/kg i.p.
  Delay: 2.10 days
  Mean TVQT ± S.E.: 8.4 ± 0.3 days
  Median (TVQT): 8.1 days
  TVQT/CTVQT: 1.3
[1]; 4 mg/Kg IP
  TVQT: 9.2 days
[1]; 4 mg/Kg IP, listed as Cisplatin/WFI
  TVQT: 9.2 ± 0.4 days

## COc1cc2c(c(OC)c1OC)-c1ccc(OC)c(=O)cc1[C@@H](NC(C)=O)CC2 [Colchicine, colchicine]
[1]; 10 mg/Kg PO
  TVQT: 6.3 days
[1]; 10 mg/Kg PO, listed as Colchicine/Saline
  TVQT: 6.3 ± 0.3 days

## COc1cc(/C=C/C(=O)CC(=O)/C=C/c2ccc(O)c(OC)c2)ccc1O [Curcumin]
[1]; 25 mg/Kg IP
  TVQT: 9.7 days
[1]; 25 mg/Kg IP, listed as Curcumin/DMSO
  TVQT: 9.7 ± 1.1 days

## COc1cc([C@@H]2c3cc4c(cc3[C@@H](O[C@@H]3O[C@@H]5CO[C@@H](C)O[C@H]5[C@H](O)[C@H]3O)[C@H]3COC(=O)[C@H]23)OCO4)cc(OC)c1O [Etoposide]
[1]; 10 mg/Kg IP
  TVQT: 8.5 days
[1]; 10 mg/Kg IP, listed as Etoposide/Saline
  TVQT: 8.5 ± 0.5 days

## O=c1c(-c2ccc(O)cc2)coc2cc(O)cc(O)c12 [Genistein]
[3]; 60 mg/kg i.p.
  Delay: 0.78 days
  Median (TGD): 8.1 days
  TGD ± S.E.: 7.9 ± 0.4 days
  TGD/CTGD: 1.1

## COC(=O)C[C@](O)(CCCC(C)(C)O)C(=O)O[C@@H]1C(OC)=C[C@]23CCCN2CCc2cc4c(cc2[C@H]13)OCO4 [Homoharringtonine, homoharringtonine]
[1]; 4 mg/Kg IP, listed as Homoharringtonine/WFI
  TVQT: 8.5 ± 0.5 days
[1]; 4 mg/Kg IP, listed as homoharringtonie
  TVQT: 8.5 days

## CC(=O)O[C@H]1C(=O)[C@@]2(C)[C@H]([C@H](OC(=O)c3ccccc3)[C@]3(O)C[C@H](OC(=O)[C@H](O)[C@@H](NC(=O)c4ccccc4)c4ccccc4)C(C)=C1C3(C)C)[C@]1(OC(C)=O)CO[C@@H]1C[C@@H]2O [Paclitaxel]
[1]; 10 mg/Kg IP
  TVQT: 7.9 days
[1]; 10 mg/Kg IP, listed as Paclitaxel/Cremaphor EL
  TVQT: 7.9 ± 0.3 days

## O=C(/C=C/c1ccc(O)c(O)c1)O[C@H](Cc1ccc(O)c(O)c1)C(=O)O [Rosmarinic Acid]
[3]; 20 mg/kg i.p.
  Delay: 0.46 days
  Median (TGD): 7.8 days
  TGD ± S.E.: 8.4 ± 0.5 days
  TGD/CTGD: 1.1

## CC[C@]1(O)C[C@@H]2CN(CCc3c([nH]c4ccccc34)[C@@](C(=O)OC)(c3cc4c(cc3OC)N(C)[C@H]3[C@@](O)(C(=O)OC)[C@H](OC(C)=O)[C@]5(CC)C=CCN6CC[C@]43[C@@H]65)C2)C1 [Vinblastine]
[1]; 2 mg/Kg IP
  TVQT: 8.6 days
[1]; 2 mg/Kg IP, listed as Vinblastine/Saline
  TVQT: 8.6 ± 0.4 days

Reference: patent US7135481B2, “Naphthalimide compositions and uses thereof” (ChemGenex Pharmaceuticals, Inc., priority 2000, dated 2006)
